Experimental findings from patent US11661437B2, “Steroid derivative regulators, method for preparing the same, and uses thereof” (priority 2018, dated 2023) are described below.

The term IC50 denotes the concentration that inhibits the measured activity by half.

This test relates to GABA-A receptor. Put plainly: 35S-TBPS binding assay on rat cerebral cortex cell membrane. On the set-up: species or system Sprague-Dawley rat. The note with it: 2 nM 35S-TBPS, GABA added, read-out: 35S-TBPS bindng test, IC50 on inhibiting the TBPS binding activity. The protocol:
1.2.1 Extraction of Cerebral Cortex Cell Membrane:
1. The cerebral cortex of male Sprague-Dawley rat was isolated.
2. A pre-chilled 0.32 M sucrose solution (one tablet of protease inhibitor was added per 100 ml) was added to the cerebral cortex (the volume of sucrose solution was 10 times the volume of the cerebral cortex). The mixture was crushed with a 50 ml glass tissue homogenizer in batches and mixed well.
3. The mixture was centrifuged at 1500 g, 4° C. for 10 minutes, and the supernatant was collected.
4. The mixture was centrifuged at 20000 g, 4° C. for 30 minutes, and the supernatant was discarded.
5. The precipitate was resuspended with the pre-chilled phosphate buffer saline (PBS) (one tablet of protease inhibitor was added per 100 ml). An average of 4 ml of PBS was added per rat, and the mixture was mixed well with a glass tissue homogenizer.
6. The mixture was centrifuged at 10000 g, 4° C. for 10 minutes, and the supernatant was discarded.
7. Steps 5 and 6 were repeated three times.
8. Finally, the precipitate was resuspended with 4 volumes of PBS. The resulting solution was dispensed, frozen in liquid nitrogen, and stored at −80° C.
9. The protein concentration was measured by the bicinchoninic acid (BCA) method.
1.2.2 ^35S-TBPS Binding Assay
1. 230 μL of PBS was added to each well of a well plate with 1.1 ml volume.
2. 60 μL of the cerebral cortex cell membrane (5 μg/μL) solution was added to each well, and the mixture was mixed well.
3. The test compound (3 μL per well) was added, and the plate was incubated at 25° C. for 5 minutes. The DMSO concentration was 1%. The initial compound concentration was 1 NM, and a 3-fold dilution in gradient was carried out to obtain a total of 8 gradients and 2 replicates. 1% DMSO was used as a negative control, and 10 μM P026-2 was used as a positive control.
4. GABA was added at a final concentration of […], and incubated at 25° C. for 5 minutes. 1 mM GABA solution was formulated, and 1.5 μL of the solution was added to each well.
5. ^35S-TBPS was added at a final concentration of 2 nM. The concentration of isotope mother solution was 9.7 μM. After dilution with PBS for 100 times, 6 μL of the diluted isotope solution was added to each well.
6. The plate was incubated at 4° C. for 20 hours.
7. The FilterMate GF/C plate was pre-treated with 0.5% PEI, and incubated at 4° C. for 1 hour.
8. The FilterMate GF/C plate was washed with Universal Harvester twice, 50 ml PBS each time.
9. The reaction solution was transferred to the GF/C plate, and each well was washed 4 times with 900 μL PBS.
10. The washed GF/C plate was placed at 55° C. and dried for 10 minutes.
11. 40 μL of scintillation solution was added to each well, and the CPM value was read with TopCount.
1.2.3 Experimental Data Processing Method:
In the experiment, the CPM (counts per minute) value was read with TopCount. According to the readings of the High control (DMSO) and the Low control (10 μM of the positive compound) experimental groups, the % inhibition was calculated based on the following formula: % Inhibition=100×(CPMHigh control−CPMSample)/(CPMHigh control−CPMLow control)
The IC50 of the compound was calculated according to the following 4-parameter nonlinear logic formula: Y=Bottom+(Top−Bottom)/(1+10^((Log IC50−X)*Hill Slope)),
The effect of the compound of the present invention on the TBPS binding activity was determined by the above test, and the measured IC50 values are shown in Table 1.

For the molecule `C[C@@]1(O)CC[C@@]2(F)[C@H](CC[C@H]3[C@@H]4CC[C@H](C(=O)COc5cncnc5)[C@@]4(C)CC[C@@H]32)C1` [Example 49, 1-((3R,5R,8S,9S,10R,13S,14S,17S)-10-Fluoro-3-hydroxy-3,13-dimethylhexadecahydro-1H-cyclopenta[a]phenanthren-17-yl)-2-(pyrimidin-5-yloxy)ethan-1-one], the IC50 amounted to 48 nM.

On to `C[C@@]1(O)CC[C@@]2(F)[C@H](CC[C@H]3[C@@H]4CC[C@H](C(=O)Cn5cc(C#N)c(C6CC6)n5)[C@@]4(C)CC[C@@H]32)C1` [Example 40, 3-Cyclopropyl-1-(2-((3R,5R,8S,9S,10R,13S,14S,17S)-10-fluoro-3-hydroxy-3,13-dimethylhexadecahydro-1H-cyclopenta[a]phenanthren-17-yl)-2-oxoethyl)-1H-pyrazole-4-carbonitrile], for which the IC50 amounted to 12 nM.

As to `CCOC(=O)c1cnn(CC(=O)[C@H]2CC[C@H]3[C@@H]4CC[C@@H]5C[C@](C)(O)CC[C@]5(F)[C@H]4CC[C@]23C)c1` [Example 59, Ethyl 1-(2-((3R,5R,8S,9S,10R,13S,14S,17S)-10-fluoro-3-hydroxy-3,13-dimethylhexadecahydro-1H-cyclopenta[a]phenanthren-17-yl)-2-oxoethyl)-1H-pyrazole-4-carboxylate], the IC50 is 9.4 nM.

Turning to `C[C@@]1(O)CC[C@@]2(F)[C@H](CC[C@H]3[C@@H]4CC[C@H](C(=O)COc5ccc(C#N)cc5F)[C@@]4(C)CC[C@@H]32)C1` [Example 31, 3-Fluoro-4-(2-((3R,5R,8S,9S,10R,13S,14S,17S)-10-fluoro-3-hydroxy-3,13-dimethylhexadecahydro-1H-cyclopenta[a]phenanthren-17-yl)-2-oxoethoxy)benzonitrile], the 50% inhibitory concentration (IC50) worked out at 11.1 nM.

Turning to `CSc1cnn(CC(=O)[C@H]2CC[C@H]3[C@@H]4CC[C@@H]5C[C@](C)(O)CC[C@]5(F)[C@H]4CC[C@]23C)c1` [Example 55, 1-((3R,5R,8S,9S,10R,13S,14S,17S)-10-Fluoro-3-hydroxy-3,13-dimethylhexadecahydro-1H-cyclopenta[a]phenanthren-17-yl)-2-(4-(methylthio)-1H-pyrazol-1-yl)ethan-1-one], the IC50 came to 42.5 nM.

For the molecule `C[C@@]1(O)CC[C@@]2(F)[C@H](CC[C@H]3[C@@H]4CC[C@H](C(=O)CNc5ccccc5F)[C@@]4(C)CC[C@@H]32)C1` [Example 24, 1-((3R,5R,8S,9S,10R,13S,14S,17S)-10-Fluoro-3-hydroxy-3,13-dimethylhexadecahydro-1H-cyclopenta[a]phenanthren-17-yl)-2-((2-fluorophenyl)amino)ethan-1-one], the IC50 worked out at 10.2 nM.

Regarding `COc1ccc2c(c1)nnn2CC(=O)[C@H]1CC[C@H]2[C@@H]3CC[C@@H]4C[C@](C)(O)CC[C@]4(F)[C@H]3CC[C@]12C` [Example 48, 1-((3R,5R,8S,9S,10R,13S,14S,17S)-10-Fluoro-3-hydroxy-3,13-dimethylhexadecahydro-1H-cyclopenta[a]phenanthren-17-yl)-2-(5-methoxy-1H-benzo[d][1,2,3]triazol-1-yl)ethan-1-one], the IC50 was determined as 7.3 nM.

On to `COc1ccc2nn(CC(=O)[C@H]3CC[C@H]4[C@@H]5CC[C@@H]6C[C@](C)(O)CC[C@]6(F)[C@H]5CC[C@]34C)nc2c1` [Example 46, 1-((3R,5R,8S,9S,10R,13S,14S,17S)-10-Fluoro-3-hydroxy-3,13-dimethylhexadecahydro-1H-cyclopenta[a]phenanthren-17-yl)-2-(5-methoxy-2H-benzo[d][1,2,3]triazol-2-yl)ethan-1-one], for which the IC50 came out at 5.6 nM.

On to `C[C@@]1(O)CC[C@]2(F)C3CC[C@]4(C)[C@@H](C(=O)Cn5cc(C6CC6)nn5)CC[C@H]4[C@@H]3CC[C@@H]2C1` (stereo partly drawn) [Example 64, 2-(4-Cyclopropyl-1H-1,2,3-triazol-1-yl)-1-((3R,5R,8S,10R,13S,14S,17S)-10-fluoro-3-hydroxy-3,13-dimethylhexadecahydro-1H-cyclopenta[a]phenanthren-17-yl)ethan-1-one], for which the IC50 is 24.8 nM.

As for `C[C@@]1(O)CC[C@@]2(F)[C@H](CC[C@H]3[C@@H]4CC[C@H](C(=O)Cn5cc(Cl)cn5)[C@@]4(C)CC[C@@H]32)C1` [Example 37, 2-(4-Chloro-1H-pyrazol-1-yl)-1-((3R,5R,8S,9S,10R,13S,14S,17S)-10-fluoro-3-hydroxy-3,13-dimethylhexadecahydro-1H-cyclopenta[a]phenanthren-17-yl)ethan-1-one], the IC50 came to 17 nM.

Take `Cc1cnn(CC(=O)[C@H]2CC[C@H]3[C@@H]4CC[C@@H]5C[C@](C)(O)CC[C@]5(F)[C@H]4CC[C@]23C)c1` [Example 11, 1-((3R,5R,8S,9S,10R,13S,14S,17S)-10-Fluoro-3-hydroxy-3,13-dimethylhexadecahydro-1H-cyclopenta[a]phenanthren-17-yl)-2-(4-methyl-1H-pyrazol-1-yl)ethan-1-one]: the IC50 turned out to be 41.3 nM.

For `C[C@@]1(O)CC[C@@]2(F)[C@H](CC[C@H]3[C@@H]4CC[C@H](C(=O)Cn5ccc(C#N)n5)[C@@]4(C)CC[C@@H]32)C1` [Example 3, 1-(2-((3R,5R,8S,9S,10R,13S,14S,17S)-10-Fluoro-3-hydroxy-3,13-dimethylhexadecahydro-1H-cyclopenta[a]phenanthren-17-yl)-2-oxoethyl)-1H-pyrazole-3-carbonitrile], the IC50 was determined as 10.9 nM.

In the case of `C[C@@]1(O)CC[C@@]2(F)[C@H](CC[C@H]3[C@@H]4CC[C@H](C(=O)COc5ccc(F)cc5C#N)[C@@]4(C)CC[C@@H]32)C1` [Example 30, 5-Fluoro-2-(2-((3R,5R,8S,9S,10R,13S,14S,17S)-10-fluoro-3-hydroxy-3,13-dimethylhexadecahydro-1H-cyclopenta[a]phenanthren-17-yl)-2-oxoethoxy)benzonitrile], the IC50 is 7.2 nM.

As for `C[C@@]1(O)CC[C@@]2(F)[C@H](CC[C@H]3[C@@H]4CC[C@H](C(=O)Cn5cc(-c6ncco6)cn5)[C@@]4(C)CC[C@@H]32)C1` [Example 52, 1-((3R,5R,8S,9S,10R,13S,14S,17S)-10-Fluoro-3-hydroxy-3,13-dimethylhexadecahydro-1H-cyclopenta[a]phenanthren-17-yl)-2-(4-(oxazol-2-yl)-1H-pyrazol-1-yl)ethan-1-one], the IC50 turned out to be 23 nM.

For `C[C@@]1(O)CC[C@@]2(F)[C@H](CC[C@H]3[C@@H]4CC[C@H](C(=O)Cn5nnc6ccccc65)[C@@]4(C)CC[C@@H]32)C1` [Example 15, 2-(1H-Benzo[d][1,2,3]triazol-1-yl)-1-((3R,5R,8S,9S,10R,13S,14S,17S)-10-fluoro-3-hydroxy-3,13-dimethylhexadecahydro-1H-cyclopenta[a]phenanthren-17-yl)ethan-1-one], the IC50 worked out at 8.7 nM.

As to `C[C@@]1(O)CC[C@]2(F)C3CC[C@]4(C)[C@@H](C(=O)Cn5ncc(C6CC6)n5)CC[C@H]4[C@@H]3CC[C@@H]2C1` (stereo partly drawn) [Example 63, 2-(4-Cyclopropyl-2H-1,2,3-triazol-2-yl)-1-((3R,5R,8S,10R,13S,14S,17S)-10-fluoro-3-hydroxy-3,13-dimethylhexadecahydro-1H-cyclopenta[a]phenanthren-17-yl)ethan-1-one], the IC50 was found to be 25.8 nM.

Regarding `C[C@@]1(O)CC[C@@]2(F)[C@H](CC[C@H]3[C@@H]4CC[C@H](C(=O)Cn5cc6c(n5)CCCC6)[C@@]4(C)CC[C@@H]32)C1` [Example 21, 1-((3R,5R,8S,9S,10R,13S,14S,17S)-10-Fluoro-3-hydroxy-3,13-dimethylhexadecahydro-1H-cyclopenta[a]phenanthren-17-yl)-2-(4,5,6,7-tetrahydro-2H-indazol-2-yl)ethan-1-one], the IC50 was 36.1 nM.
